Assay results: patent publication US20220226343A1, “3-AMINO-4-[4-[4 (DIMETHYLCARBAMOYL) PHENYL]-1,4-DIAZEPAN-1-YL]THIENO[2,3-B]PYRIDINE-2-CARBOXAMIDE FOR USE IN CANCER THERAPY AND FORMULATIONS COMPRISING THE SAME” (University of South Carolina, priority 2019, published 2022)
Where two headings read alike, the source gives them in different places.

What was measured:
MDA-MB-468 xenografts = assay: MDA-MB-468 TNBC xenografts in NSG female mice; conditions: 250 ppm medicated diet plus 5 then 8 mg/kg daily gavage, 66 days
CSNK1D = CSNK1D (Homo sapiens, UniProt P48730); assay: Kd Elect binding assay (DiscoverX)
[1] = Oral PK by formulation, male CD-1 mice 30 mg/kg; format: in vivo, mouse; conditions: for Elimination rate k: male CD-1
[2] = tested on: luciferase-expressing MV4-11 cells; assay: MV4-11 leukemia in female NSG mice (BLI); format: in vivo, mouse; conditions: for inhibition of leukemia growth: 23 days, BLI
CDK8/19 = assay: NFκB reporter assay in parental 293 reporter cells; format: cell-based
Description: We have used a cell-based assay to measure the inhibition of CDK8/19 activity by thienopyridine derivatives. This assay, based on the role of CDK8/19 in NFκB-driven transcription (Chen, 2017), measures the effects of CDK8/19 on the expression of firefly luciferase reporter from a NFκB-dependent promoter in 293 cells. Lentiviral vector pHAGE-NFKB-TA-LUC-UBC-dTomato-W (Addgene #49335) was introduced into 293 cells and a clonal cell line showing the strongest induction of luciferase expression upon TNFα treatment was established and used as the reporter cell line. As a control for CDK8/19 dependence of NFκB inhibition, we have also introduced the same reporter construct into 293 cells with CRISPR/CAS9 knockout of both CDK8 and CDK19.
FIG. 2C and Table 1 compares the IC50 values for different thienopyridines measured in the NFκB reporter assay in parental 293-derived reporter cell line to the cell-based activity values measured for the same compounds by Saito (2013) based on their effect on alkaline phosphatase (ALPase), an indicator of differentiation to osteoblasts in the mouse bone marrow stromal cell line ST2. The latter effects are expressed as EC200, a concentration that enhances ALPase activity to 200% of control.

[3] = Oral PK of a mixture of 15w and 15u, 30 mg/kg, female CD1 mice; conditions: oral 30 mg/kg each
[4] = tested on: PSA expression in CRPC cell line C4-2; assay: PSA expression in cell culture supernatant of C4-2 cells; format: cell-based; conditions: 96 h; C4-2 culture supernatant, 4-day treatment, FBS-supplemented regular media
Description: CDK8/19 inhibition decreases the expression of certain androgen-receptor (AR) inducible genes including PSA, the most common marker of prostate cancer, and the growth of castration-refractory prostate cancers (CRPC).

[5] = MTD, oral gavage b.i.d. 14 days, CD-1 mice; format: in vivo, mouse; conditions: for detrimental effects: 14 days
Method: The highest dose (120 mg/kg b.i.d.) caused about 10% body weight loss in female mice after 7-10 days of treatment but no further deterioration was observed through the rest of the treatment period (FIG. 16A).

[6] = Maximum solubility of 15u in individual excipients; format: physicochemical; set-up: key to XRPD Pattern (API = A): API = A
Method: The binary mixtures were incubated on a shaker with temperature control either at 25° C. or 40° C. for at least 48 hours. The mixtures were filtered with 0.45 μm filters to separate the solid and liquid portions. PLC was performed on the on the liquid portion to determine the maximum solubility. XRPD was performed on the collected solid to check polymorph change.

MYC-CAP-CR cells = assay: Long-term clonogenic assay, MYC-CaP-CR; format: cell-based, murine; conditions: 1 μM Senexin B, 1 μM 15u, 5 μM enzalutamide
Description: MYC-CaP-CR cells (Ellis L. et al., 2012. Prostate 72(6):587-591) were selected for castration resistance from genetically engineered MYC-CaP cells that express MYC from an AR-responsive promoter (Watson P A, et al., 2005. Cancer Res 65(24):11565-11571). Castration resistance in these cells is associated with the overexpression of full-length AR rather than an AR variant, such as AR-V7 in 22rv1 (Olson B M, et al., 2017. Cancer immunology research 5(12):1074-1085).

[7] = Oral PK by formulation, male FVB mice 50 mg/kg; conditions: for Elimination rate k: male FVB

CSNK1D, sequence (P48730 whole entry): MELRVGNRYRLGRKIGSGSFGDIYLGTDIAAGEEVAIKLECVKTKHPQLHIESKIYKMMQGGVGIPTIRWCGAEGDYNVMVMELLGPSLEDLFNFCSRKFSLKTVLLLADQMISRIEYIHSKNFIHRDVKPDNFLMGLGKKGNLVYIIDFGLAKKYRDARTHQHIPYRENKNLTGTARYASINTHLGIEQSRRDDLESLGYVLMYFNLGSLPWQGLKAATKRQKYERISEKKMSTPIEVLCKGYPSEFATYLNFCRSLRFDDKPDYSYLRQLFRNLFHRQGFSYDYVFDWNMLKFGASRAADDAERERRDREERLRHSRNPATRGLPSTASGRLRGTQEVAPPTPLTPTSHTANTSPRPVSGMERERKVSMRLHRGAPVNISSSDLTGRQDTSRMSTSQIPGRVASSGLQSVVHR

Structure (SMILES): CN(C)C(=O)c1ccc(N2CCCN(c3ccnc4sc(C(N)=O)c(N)c34)CC2)cc1 [Compound 15u, 3-amino-4-(4-(4-(dimethylcarbamoyl)phenyl)-1,4-diazepan-1-yl)thieno[2,3-b]pyridine-2-carboxamide]
- MDA-MB-468 tumor volume (MDA-MB-468 xenografts): significant reduction in tumor volume
- MDA-MB-468 tumor weights at the end of the study (MDA-MB-468 xenografts): significantly lower
- mouse body weights (MDA-MB-468 xenografts): no detrimental effects
- Kd (CSNK1D): 0.86 µM
- Elimination rate k ([1]; LF-V#2, oral 30 mg/kg): 0.22 h⁻¹
- Elimination rate k ([1]; Sus-V#1, oral 30 mg/kg): 0.37 h⁻¹
- Elimination rate k ([1]; Sus-V#2, oral 30 mg/kg): 0.38 h⁻¹
- increase of AUC, Liquid formulation 2 vs both suspension vehicles ([1]; oral 30 mg/kg, male CD-1 mice): 2-3 fold
- increase of t1/2, Liquid formulation 2 vs both suspension vehicles ([1]; oral 30 mg/kg, male CD-1 mice): ~1.7 fold
- inhibition of leukemia growth ([2]; 30 mg/kg twice daily by gavage): 94%
- inhibition of leukemia growth ([2]; medicated chow 1 g/kg): 99.7%
- survival post treatment ([2]; oral gavage): superior survival rates
- IC50 (CDK8/19; NFκB Activity Assay as described in Example 1, read-out: Inhibition Potency HEK293-NFkB-Luc Assay): 0.0103 µM
- IC50 (CDK8/19; parental 293-derived reporter cell line, read-out: NFκB activity Assay IC50): 0.01 µM
- average serum concentration at the latest timepoint (8 hrs) as % of Cmax [3]: 64.4 % of Cmax
- IC50 [4]: 0.028 µM
- body weight loss ([5]; female CD-1 mice, 120 mg/kg b.i.d., after 7-10 days of treatment): about 10%
- detrimental effects ([5]; female CD-1 mice, doses up to 60 mg/kg b.i.d.): No detrimental effects were observed
- detrimental effects ([5]; male CD-1 mice, 60 and 120 mg/kg b.i.d.): No detrimental effects were observed
- Maximum Solubility ([6]; Capryol 90): 2.9 mg/g
- Maximum Solubility ([6]; Crodamol GMCC SS): 5.5 mg/g
- Maximum Solubility ([6]; Gelucire 44/14): 3.4 mg/g
- Maximum Solubility ([6]; Kolliphor EL): 1.3 mg/g
- Maximum Solubility ([6]; Labrafac PG): 0.0 mg/g
- Maximum Solubility ([6]; Labrafil M2125CS): 0.4 mg/g
- Maximum Solubility ([6]; Labrasol): 5.4 mg/g
- Maximum Solubility ([6]; Lecithin): 1.9 mg/g
- Maximum Solubility ([6]; Maisine CC): 2.4 mg/g
- Maximum Solubility ([6]; Miglyol 812N): 0.0 mg/g
- Maximum Solubility ([6]; Oleic Acid): 0.8 mg/g
- Maximum Solubility ([6]; Olive Oil): 0.0 mg/g
- Maximum Solubility ([6]; PEG 300): 19.8 mg/g
- Maximum Solubility ([6]; PEG 400): 11.8 mg/g
- Maximum Solubility ([6]; PEG 600): 18.3 mg/g
- Maximum Solubility ([6]; Peceol): 2.5 mg/g
- Maximum Solubility ([6]; Sesame Oil): 0.0 mg/g
- Maximum Solubility ([6]; Span 20): 8.0 mg/g
- Maximum Solubility ([6]; Span 80): 1.4 mg/g
- Maximum Solubility ([6]; Transcutol HP): 3.4 mg/g
- Maximum Solubility ([6]; Tween 80): 1.9 mg/g
- Maximum Solubility ([6]; Vitamin E TPGS): 14.6 mg/g
- XRPD Pattern (API = A) ([6]; solid collected from Capryol 90): A
- XRPD Pattern (API = A) ([6]; solid collected from Crodamol GMCC SS): A
- XRPD Pattern (API = A) ([6]; solid collected from Kolliphor EL): A
- XRPD Pattern (API = A) ([6]; solid collected from Labrafac PG): A
- XRPD Pattern (API = A) ([6]; solid collected from Labrafil M2125CS): A
- XRPD Pattern (API = A) ([6]; solid collected from Labrasol): A
- XRPD Pattern (API = A) ([6]; solid collected from Lecithin): A
- XRPD Pattern (API = A) ([6]; solid collected from Maisine CC): A
- XRPD Pattern (API = A) ([6]; solid collected from Miglyol 812N): A
- XRPD Pattern (API = A) ([6]; solid collected from Oleic Acid): A
- XRPD Pattern (API = A) ([6]; solid collected from Olive Oil): A
- XRPD Pattern (API = A) ([6]; solid collected from PEG 300): A
- XRPD Pattern (API = A) ([6]; solid collected from PEG 400): A
- XRPD Pattern (API = A) ([6]; solid collected from PEG 600): A
- XRPD Pattern (API = A) ([6]; solid collected from Peceol): A
- XRPD Pattern (API = A) ([6]; solid collected from Sesame Oil): A
- XRPD Pattern (API = A) ([6]; solid collected from Span 20): A
- XRPD Pattern (API = A) ([6]; solid collected from Span 80): A
- XRPD Pattern (API = A) ([6]; solid collected from Tween 80): A
- MYC-CaP-CR colony formation (MYC-CAP-CR cells): decreased MYC-CaP-CR colony formation
- Elimination rate k ([7]; LF-V#1, oral 50 mg/kg): 0.13 h⁻¹
- Elimination rate k ([7]; Sus-V#1, oral 50 mg/kg): 0.25 h⁻¹
- increase of AUC, Liquid formulation 1 vs Suspension Vehicle 1 ([7]; oral 50 mg/kg, male FVB mice): 2.3 fold
- increase of t1/2, Liquid formulation 1 vs Suspension Vehicle 1 ([7]; oral 50 mg/kg, male FVB mice): ~2 fold
